In patent US10016358B2 (ROLF KULLGREN AB, priority 2008, dated 2018):
Counter-ions that a name gives are not always drawn.

Experiments:
Assay type in all cases: cell-based
[1] = test system: C. albicans; assay: Fungicidal effect of lactate compared with HCl at identical pH (FIG. 1); conditions: 5% solution at pH 3.8; incubation at 37 C for two hours; control 1,000,000CFU
[2] = test system: group B Streptococcus strain (GBS) CCUG 49086; assay: Minimum microbicidal concentration of lactate (microbicidal assay); conditions: for Remaining viability: 2.5 h at 37° C.; for killed: after 2.5 h of incubation
Protocol: (§1) E.coli O6K5 (a urinary tract infection pathogen), a group B Streptococcus strain (GBS) CCUG 49086, and C.albicans ATCC 64549, The microorganisms were incubated over night in BHI medium. Thereafter the suspensions were transferred to new tubes and incubated for 2.5 h at 37° C. The cells were washed and suspended in diluted BHI ( 1/100, BHIdll). The suspensions were measured spectrophotometrically at 590 nm and the concentrations of the microrganisms adjusted according to standard curves. The bacterial suspensions were adjusted to 2×10^8CFU per ml and C.albicans
(§2) One lactate suppository was dissolved in 0.5 ml of distilled water. A lactate solution of 11.5% was obtained. This solution was used in the microbicidal assay.
(§3) The lactate solution was serially diluted in BHIdll by twofold steps in tubes (100 μl piper tube). The bacterial and yeast cell solutions were added in 10 μl volumes to give a final concentration of approximately 2×10^7 and 1×10^5 cells per ml respectively. The tubes were incubated at 37° C. on a shaker for 2.5 h. Five ul were taken from each tube and added as a drop (in triplicate) onto a blood agar plate and incubated over night at 37° C. The killing was expressed as remaining colony forming units (CFU) in relation to the inoculum. The lower limit for detection of microorganisms was 200 CFU/ml. The viability of any remaining microorganism in the tubes was checked by diluting the remaining solutions to 1/5 with growth medium, resulting in a 2.3% lactate solution or less, and incubation of the tubes over night at 37 C. The next day, once again 5 μl of the solutions were applied as drops onto blood agar plates and incubated at 37° C. over night.

[3] = test system: E.coli O6K5; assay: as above; conditions: for Remaining viability: 2.5 h at 37° C.
Protocol: as §1, §2, §3

[4] = test system: C.albicans ATCC 64549; assay: as above; conditions: for killed: after 2.5 h of incubation; for Remaining viability: 2.5 h at 37° C.
Protocol: as §1, §2, §3

`Cl` [HCl, reference compound] was tested, and the “viable colony forming units of C. albicans” value [1] was 100,000 CFU.
In the case of `CC(O)C(=O)O` (stereo not shown) [lactate], the “viable colony forming units of C. albicans” value [1] is reported as less than 100 CFU, the “lactate concentration that effectively killed the pathogen” value ([2]; 2.5 h incubation) is reported as no less than 5.8% and the Remaining viability ([2]; lactate concentration 0.35%) is reported as “+ (no distinguishable colonies (>50 CFU per area = >10^4 CFU per ml))”. The Remaining viability ([2]; lactate concentration 0.7%) was “+ (no distinguishable colonies (>50 CFU per area = >10^4 CFU per ml))”, the Remaining viability ([2]; lactate concentration 1.4%) was “+ (no distinguishable colonies (>50 CFU per area = >10^4 CFU per ml))” and the Remaining viability ([2]; lactate concentration 2.9%) was “+ (no distinguishable colonies (>50 CFU per area = >10^4 CFU per ml))”. The Remaining viability ([2]; lactate concentration 5.8%) was 0, the killed ([2]; lactate concentration 5.8%) was 100% and the Remaining viability ([2]; lactate concentration 11.5%) was 0. For the same molecule, the killed ([2]; lactate concentration 11.5%) was 100%, the “lactate concentration that effectively killed the pathogen” value ([3]; 2.5 h incubation) was no less than 5.8% and the Remaining viability ([3]; lactate concentration 0.35%) was 0. For the same molecule, the Remaining viability ([3]; lactate concentration 0.7%) was 0, the Remaining viability ([3]; lactate concentration 1.4%) was 0 and the Remaining viability ([3]; lactate concentration 2.9%) was 0. It also gave a Remaining viability ([3]; lactate concentration 5.8%) of 0, a Remaining viability ([3]; lactate concentration 11.5%) of 0 and a killed ([3]; lowest concentration of lactate tested (0.35%), after 2.5 h of incubation) of 100%. The killed ([4]; 5.8% of lactate) was 99.4%, the killed ([4]; 11.5% of lactate) was 100% and the “lactate concentration that effectively killed the pathogen” value ([4]; 2.5 h incubation) was no less than 5.8%. The Remaining viability ([4]; lactate concentration 0.35%) was “+ (no distinguishable colonies (>50 CFU per area = >10^4 CFU per ml))”, the Remaining viability ([4]; lactate concentration 0.7%) was “+ (no distinguishable colonies (>50 CFU per area = >10^4 CFU per ml))” and the Remaining viability ([4]; lactate concentration 1.4%) was “+ (no distinguishable colonies (>50 CFU per area = >10^4 CFU per ml))”. For the same molecule, the Remaining viability ([4]; lactate concentration 2.9%) was “+ (no distinguishable colonies (>50 CFU per area = >10^4 CFU per ml))”, the Remaining viability ([4]; lactate concentration 5.8%) was 0.6 ± 0.4^¤ percentage of the inoculum and the Remaining viability ([4]; lactate concentration 11.5%) was 0.
